Test results published in patent US7618630B2, “Methods of treating multiple myeloma and myeloma-induced bone resorption using integrin antagonists” (Board of Regents, The University of Texas System, priority 1998, dated 2009).
“Also recorded” adds a separate entry of the source.

Tests used:
[1] = system: 5TGM1 myeloma cells; test: Survival by onset of hindleg paralysis of 5TGM1-bearing mice, melphalan and PS/2 mAb; format: in vivo, scid/nu/bg mice
Procedure: We also examined the effects of the combined administration of melphalan (100 μg/mouse) and PS/2 mAb on survival of 5TGM1-bearing mice (scid/nu/bg mice). We evaluated survival by the onset of hindleg paralysis (i.e., the onset of hindleg paralysis was the end-point in these experiments). […] Thus, we can reduce the dose of Melphalan to a quarter in the presence of the anti-α4Ab, as compared to melphalan alone.

[2] = system: 5TGM1 mouse myeloma cells; test: α4Ab and melphalan in 5TGM1-inoculated xid-nu-bg mice; format: in vivo
Procedure: Here, we studied the effects of a neutralizing antibody to α4 integrin (α4Ab), which disrupts stromal cells/myeloma cell interactions, on the sensitivity of myeloma to melphalan, a most widely-used chemotherapeutic agent for myeloma, using the 5TGM1 mouse myeloma cells that reproducibly cause extensive osteolysis in tumor-bearing animals. The α4Ab (100-200 μg/mouse, i.p., 2 or 3 times a week) and melphalan (50, 100, 200 μg/mouse, i.p., once a week) were administered following inoculation of 5TGM1 cells in the tail vein in male xid-nu-bg mice.

[3] = system: GFP+ 5TGM1 myeloma cells; test: Combination treatment with PS/2 and melphalan in C57BL/KaLwRij model of multiple myeloma; format: in vivo, C57BL/KaLwRij mice; settings: day 27
Source text: Additive/synergistic effects of the combination of PS/2 mAb and melphalan were seen under most conditions. In these experiments, the 5TGM1 cells injected into the animals were transfected with an expression vector containing the GFP gene. These myeloma cells expressed the GFP protein, allowing the myeloma cells to be tracked directly as GFP+ myeloma cells. These myeloma cells could also be tracked as mIgG2b positive cells. The data were only useful on day 27.

[4] = system: 5TGM1 myeloma cells; test: Combined effects of melphalan and anti-alpha 4 integrin Ab in 5TGM1 model (scid/nu/bg mice, day 28); format: in vivo; settings: mAb 200 μg first week then 100 μg, melphalan three times
Procedure: In one particular set of experiments on the combined effects of melphalan and anti-alpha 4 integrin Ab in 5TGM1 model, as shown in an experimental protocol in FIG. 7, an initial high dose of 200 μg mAb was given during the first week, followed by a maintenance dose of 100 μg. Melphalan was given three times. Animals (scid/nu/bg mice) were sacrificed at day 28 and serum IgG2b levels (a surrogate marker of tumor burden) and tumor burden in bone were measured (histomorphometric analysis of bones). […] The data were a summary of two experiments combined.

[5] = system: VLA-4 and VLA-5; settings: cited from earlier work
[6] = molecular target: VLA-4 (Homo sapiens, UniProt P05556+P13612); settings: cited from earlier work
VLA-4, sequence (P13612 34-1032): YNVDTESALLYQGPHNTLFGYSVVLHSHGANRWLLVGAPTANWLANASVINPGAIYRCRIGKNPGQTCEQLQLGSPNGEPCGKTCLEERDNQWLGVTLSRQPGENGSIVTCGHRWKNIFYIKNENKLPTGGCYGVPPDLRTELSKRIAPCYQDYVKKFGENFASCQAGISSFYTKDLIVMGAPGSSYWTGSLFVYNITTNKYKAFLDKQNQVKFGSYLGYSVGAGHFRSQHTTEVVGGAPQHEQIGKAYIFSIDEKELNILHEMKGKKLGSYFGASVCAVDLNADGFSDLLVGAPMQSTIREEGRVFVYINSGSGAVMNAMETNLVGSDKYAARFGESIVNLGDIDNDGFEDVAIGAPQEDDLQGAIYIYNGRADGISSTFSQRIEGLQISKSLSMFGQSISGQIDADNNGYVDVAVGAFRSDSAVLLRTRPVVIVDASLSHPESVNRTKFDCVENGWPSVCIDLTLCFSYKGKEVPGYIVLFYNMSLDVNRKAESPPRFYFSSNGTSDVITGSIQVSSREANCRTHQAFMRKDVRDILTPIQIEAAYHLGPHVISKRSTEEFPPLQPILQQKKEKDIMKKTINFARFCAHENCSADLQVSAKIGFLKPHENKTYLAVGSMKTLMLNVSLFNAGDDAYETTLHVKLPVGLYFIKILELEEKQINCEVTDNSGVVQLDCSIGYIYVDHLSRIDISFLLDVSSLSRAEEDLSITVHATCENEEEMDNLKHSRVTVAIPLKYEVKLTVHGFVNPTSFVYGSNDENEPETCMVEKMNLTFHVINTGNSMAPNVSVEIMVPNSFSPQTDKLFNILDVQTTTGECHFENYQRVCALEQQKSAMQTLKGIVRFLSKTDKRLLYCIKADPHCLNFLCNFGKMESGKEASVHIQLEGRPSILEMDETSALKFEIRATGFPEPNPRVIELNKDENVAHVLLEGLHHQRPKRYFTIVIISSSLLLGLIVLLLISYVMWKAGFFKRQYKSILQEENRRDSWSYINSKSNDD
VLA-4, sequence (P05556 21-798): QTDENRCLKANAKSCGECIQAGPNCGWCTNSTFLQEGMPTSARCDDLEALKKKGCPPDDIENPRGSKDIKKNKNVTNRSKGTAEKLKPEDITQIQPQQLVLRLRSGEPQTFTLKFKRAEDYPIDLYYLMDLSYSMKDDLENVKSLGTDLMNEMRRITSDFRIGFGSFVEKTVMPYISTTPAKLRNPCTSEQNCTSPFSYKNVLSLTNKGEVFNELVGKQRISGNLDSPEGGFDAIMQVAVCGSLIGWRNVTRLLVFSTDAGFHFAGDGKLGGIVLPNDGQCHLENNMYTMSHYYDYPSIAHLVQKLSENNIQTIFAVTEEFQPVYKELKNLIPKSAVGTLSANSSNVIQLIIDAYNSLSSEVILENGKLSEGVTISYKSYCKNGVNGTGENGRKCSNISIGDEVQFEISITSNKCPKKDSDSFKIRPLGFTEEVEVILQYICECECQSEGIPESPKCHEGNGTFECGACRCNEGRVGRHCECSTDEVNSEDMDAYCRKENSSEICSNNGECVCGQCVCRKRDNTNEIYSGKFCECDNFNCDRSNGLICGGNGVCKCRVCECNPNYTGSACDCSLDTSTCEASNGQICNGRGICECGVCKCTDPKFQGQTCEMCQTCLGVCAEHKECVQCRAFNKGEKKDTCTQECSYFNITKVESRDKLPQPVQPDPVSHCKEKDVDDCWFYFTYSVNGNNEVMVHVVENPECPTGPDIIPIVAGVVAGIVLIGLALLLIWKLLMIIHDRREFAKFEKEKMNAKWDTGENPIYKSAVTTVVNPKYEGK

[7] = molecular target: VCAM-1 expressed on ST2 mouse bone marrow stromal cells (murine) (UniProt P29533); test: cell-based or functional assay
VCAM-1 expressed on ST2 mouse bone marrow stromal cells (murine), sequence (P29533 25-739): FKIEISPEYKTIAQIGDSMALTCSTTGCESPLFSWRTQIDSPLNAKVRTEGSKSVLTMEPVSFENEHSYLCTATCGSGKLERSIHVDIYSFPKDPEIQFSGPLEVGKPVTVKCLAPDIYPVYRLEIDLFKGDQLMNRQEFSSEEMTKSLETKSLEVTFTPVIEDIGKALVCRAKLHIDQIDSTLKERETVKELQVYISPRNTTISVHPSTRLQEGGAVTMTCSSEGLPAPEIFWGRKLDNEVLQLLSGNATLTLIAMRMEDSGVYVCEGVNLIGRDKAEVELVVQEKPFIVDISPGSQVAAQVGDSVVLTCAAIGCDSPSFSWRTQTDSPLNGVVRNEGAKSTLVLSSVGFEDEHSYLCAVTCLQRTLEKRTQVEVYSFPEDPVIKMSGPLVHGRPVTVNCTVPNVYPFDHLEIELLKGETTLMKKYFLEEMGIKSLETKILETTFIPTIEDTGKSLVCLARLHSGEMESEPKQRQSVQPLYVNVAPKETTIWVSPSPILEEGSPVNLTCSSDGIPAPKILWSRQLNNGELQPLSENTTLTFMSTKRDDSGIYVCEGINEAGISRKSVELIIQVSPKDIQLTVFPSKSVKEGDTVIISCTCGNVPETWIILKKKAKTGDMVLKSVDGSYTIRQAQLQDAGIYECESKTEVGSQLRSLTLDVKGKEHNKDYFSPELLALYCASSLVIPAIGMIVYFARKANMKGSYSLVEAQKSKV

[8] = molecular target: integrin VLA-4 expressed on 5TGM1 murine myeloma cells (murine) (UniProt Q00651); test: cell-based or functional assay
integrin VLA-4 expressed on 5TGM1 murine myeloma cells (murine), sequence (Q00651 41-1039, chain 1 of 2): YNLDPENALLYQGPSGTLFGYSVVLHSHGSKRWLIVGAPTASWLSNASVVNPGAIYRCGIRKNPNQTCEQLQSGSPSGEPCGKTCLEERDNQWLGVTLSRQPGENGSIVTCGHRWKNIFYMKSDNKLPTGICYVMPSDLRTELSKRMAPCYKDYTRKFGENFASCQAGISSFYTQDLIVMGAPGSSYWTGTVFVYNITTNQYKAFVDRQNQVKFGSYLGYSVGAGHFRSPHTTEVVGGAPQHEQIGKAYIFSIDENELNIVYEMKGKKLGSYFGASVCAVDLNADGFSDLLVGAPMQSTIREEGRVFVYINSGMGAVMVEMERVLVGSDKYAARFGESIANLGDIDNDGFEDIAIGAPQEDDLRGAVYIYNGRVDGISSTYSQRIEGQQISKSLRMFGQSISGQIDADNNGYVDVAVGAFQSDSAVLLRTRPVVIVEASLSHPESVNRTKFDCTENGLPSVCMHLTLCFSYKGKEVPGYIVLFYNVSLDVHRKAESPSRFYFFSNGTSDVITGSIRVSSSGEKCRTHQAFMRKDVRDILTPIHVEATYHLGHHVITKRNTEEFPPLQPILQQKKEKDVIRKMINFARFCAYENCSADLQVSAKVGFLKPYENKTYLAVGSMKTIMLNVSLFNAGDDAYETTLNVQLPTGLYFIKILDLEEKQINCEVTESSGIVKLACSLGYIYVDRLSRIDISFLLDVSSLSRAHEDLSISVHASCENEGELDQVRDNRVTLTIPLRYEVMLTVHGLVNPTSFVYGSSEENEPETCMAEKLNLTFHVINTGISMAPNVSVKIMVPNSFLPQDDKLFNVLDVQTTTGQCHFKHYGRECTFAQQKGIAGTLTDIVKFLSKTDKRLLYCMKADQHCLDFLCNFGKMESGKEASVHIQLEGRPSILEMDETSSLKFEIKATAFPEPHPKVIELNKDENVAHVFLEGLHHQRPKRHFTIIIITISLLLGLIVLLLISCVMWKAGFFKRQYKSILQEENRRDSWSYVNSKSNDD
integrin VLA-4 expressed on 5TGM1 murine myeloma cells (murine), sequence (P09055 21-798, chain 2 of 2, further chain): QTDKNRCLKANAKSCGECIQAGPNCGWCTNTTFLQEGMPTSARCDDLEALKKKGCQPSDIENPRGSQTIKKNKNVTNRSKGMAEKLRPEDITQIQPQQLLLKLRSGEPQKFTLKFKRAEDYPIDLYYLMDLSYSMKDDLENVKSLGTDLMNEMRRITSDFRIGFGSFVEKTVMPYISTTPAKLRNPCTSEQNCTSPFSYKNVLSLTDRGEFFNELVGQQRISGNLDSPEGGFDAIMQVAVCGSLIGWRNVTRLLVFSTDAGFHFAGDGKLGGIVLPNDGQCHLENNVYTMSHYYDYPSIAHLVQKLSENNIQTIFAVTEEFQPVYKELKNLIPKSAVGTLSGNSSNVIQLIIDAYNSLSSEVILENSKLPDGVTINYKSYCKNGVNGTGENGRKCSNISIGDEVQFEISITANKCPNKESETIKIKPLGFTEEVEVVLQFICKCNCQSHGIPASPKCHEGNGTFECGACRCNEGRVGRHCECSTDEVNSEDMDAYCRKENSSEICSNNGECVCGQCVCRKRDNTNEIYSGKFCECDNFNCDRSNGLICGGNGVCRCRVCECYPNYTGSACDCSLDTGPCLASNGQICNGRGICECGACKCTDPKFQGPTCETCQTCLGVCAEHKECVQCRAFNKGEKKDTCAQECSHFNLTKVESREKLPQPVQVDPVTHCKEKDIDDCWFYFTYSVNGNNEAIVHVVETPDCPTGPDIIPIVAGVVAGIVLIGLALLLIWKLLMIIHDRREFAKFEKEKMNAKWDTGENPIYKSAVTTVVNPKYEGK

[9] = system: 5TGM1 cells; test: Osteoclastogenic activity of conditioned medium of sVCAM-1-treated 5TGM1 cells in mouse marrow cultures; format: cell-based; settings: 6 days, 1×10^−7 M sVCAM-1
Procedure: Conditioned medium was harvested from 5TGM1 cells cultured in the presence or absence of sVCAM-1 (1×10^−8 to 1×10^−7 Molar) for 24 hours. Osteoclastogenic activity of these conditioned media was assayed in the mouse marrow cultures. Bone marrow cells (1e6/well) were plated into 48-well plates, and cultured in the presence of conditioned media (hatched bars) or control medium (IMDM) containing the same concentrations of sVCAM-1 (open bars). After 6 days, cultures were fixed and the number of TRAP-positive multinucleated OC-like cells (TRAP+MNC) was determined.

[10] = system: Rank ligand mRNA; test: Expression of Rank ligand mRNA in 5TGM1 and ST2 cells; format: cell-based, mouse
Source text: Because Rank ligand appears to be an important mediator of OCL formation and may be the final common pathway for the effects of osteoclastogenic cytokines on OCL formation, we have examined the expression of Rank ligand in 5TGM1 and ST2 cells both individually and when cocultured. We find that coculture of 5TGM1 and ST2 cells induces Rank ligand mRNA in the ST2 cells.

[11] = system: 45Ca-labeled fetal rat long bones; test: Bone resorption in organ cultures of 45Ca-labeled fetal rat long bones; format: cell-based
Procedure: Conditioned media harvested from 5TGM1 cultures were assayed for bone-resorbing activity by organ cultures of 45Ca-labeled fetal rat long bones as described previously (Mbalaviele 1995). Pregnant rats were injected with 250 uCi of 45Ca (New England Nuclear) on the 18th day of gestation. Radius and ulna bone shafts were obtained from 19-day fetuses by microdissection, and precultured for 24 h in BGJ medium (Sigma) supplemented with 0.1% BSA between air and liquid-phase on stainless mesh grids. Bones were then cultured in the presence of conditioned media (50% v/v) or in control medium for 120 hours. The media were changed once at 48 hours. At the end of the culture, bones were incubated in ice-cold 5% trichloroacetic acid for 2 h, and 45Ca radioactivity in bones and media determined in a liquid scintillation counter. Bone resorption was quantitated as the percentage of 45Ca released into the medium from bones as calculated by: (45Ca count in medium)/(45Ca count in medium and bone)×100.

Q: Which results are given for N[C@@H](Cc1ccc(N(CCCl)CCCl)cc1)C(=O)O [melphalan]?
A: onset of hindleg paralysis ([1]; melphalan 100 μg/mouse and/or anti-α4Ab): had no effect on the onset of hindleg paralysis; onset of hindleg paralysis ([1]; melphalan alone 200 μg/mouse): significantly delayed the onset; serum IgG2 levels ([2]; melphalan alone 200 μg/mouse): significantly suppressed; serum IgG2 levels ([2]; melphalan alone 50 and 100 μg/mouse i.p. once a week): failed to suppress serum IgG2 levels; mIgG2b plasma levels [3]: unaffected; percentage of GFP+ myeloma cells in blood [3]: unaffected; percentage of GFP+ myeloma cells in bone marrow [3]: Neither melphalan nor PS/2 mAb alone affected; percentage of GFP+ myeloma cells in spleen [3]: unaffected; serum IgG2b levels [4]: only modestly affected

Q: With Arg-Cys-Asp-TPro-Cys as the molecule, how does the “inhibition of VLA-4 and VLA-5 adhesion to fibronectin” value [5] read?
A: can inhibit both VLA-4 and VLA-5 adhesion to fibronectin

Q: With “Glu-Ile-Leu-Asp-Val (EILDV) [pentapeptide of the fibronectin CS-1 region]” as the molecule, how does the “inhibitory activity against fibronectin-dependent cell adhesion” value [6] read?
A: possessed inhibitory activity against fibronectin-dependent cell adhesion

Q: For “Leu-Asp-Val-Pro-Ser (LDVPS) [pentapeptide of the fibronectin CS-1 region]”, which “inhibitory activity against fibronectin-dependent cell adhesion” value [6] is on record?
A: possessed inhibitory activity against fibronectin-dependent cell adhesion

Q: For mAb M/K-2.7 to murine VCAM-1 (antibody), which attachment of 5TGM1 cells to ST2 monolayers [7] is on record?
A: 50 to 80%

Q: With mAb PS/2 to VLA-4 (antibody) as the molecule, how does the attachment of 5TGM1 cells to ST2 monolayers [8] read?
A: 50 to 80%

B1: sVCAM-1: recombinant soluble VCAM-1 containing the 7 extracellular domains of human VCAM-1 (protein)
chain: FKIETTPESRYLAQIGDSVSLTCSTTGCESPFFSWRTQIDSPLNGKVTNEGTTSTLTMNPVSFGNEHSYLCTATCESRKLEKGIQVEIYSFPKDPEIHLSGPLEAGKPITVKCSVADVYPFDRLEIDLLKGDHLMKSQEFLEDADRKSLETKSLEVTFTPVIEDIGKVLVCRAKLHIDEMDSVPTVRQAVKELQVYISPKNTVISVNPSTKLQEGGSVTMTCSSEGLPAPEIFWSKKLDNGNLQHLSGNATLTLIAMRMEDSGIYVCEGVNLIGKNRKEVELIVQEKPFTVEISPGPRIAAQIGDSVMLTCSVMGCESPSFSWRTQIDSPLSGKVRSEGTNSTLTLSPVSFENEHSYLCTVTCGHKKLEKGIQVELYSFPRDPEIEMSGGLVNGSSVTVSCKVPSVYPLDRLEIELLKGETILENIEFLEDTDMKSLENKSLEMTFIPTIEDTGKALVCQAKLHIDDMEFEPKQRQSTQTLYVNVAPRDTTVLVSPSSILEEGSSVNMTCLSQGFPAPKILWSRQLPNGELQPLSENATLTLISTKMEDSGVYLCEGINQAGRSRKEVELIIQVTPKDIKLTAFPSESVKEGDTVIISCTCGNVPETWIILKKKAETGDTVLKSIDGAYTIRKAQLKDAGVYECESKNKVGSQLRSLTLDVQGRENNKDYFSPE
Q: What does the source list for B1?
A: OC-like cell (TRAP(+)MNC) formation by conditioned medium from 5TGM1 cells treated with sVCAM-1 [9]: showed increased activity of OC-like cell formation; also recorded: increased TRAP(+)MNC formation; Rank ligand expression in 5TGM1 cells ([10]; 5TGM1 cells treated with sVCAM-1): they do so when treated with sVCAM-1; Rank ligand mRNA in ST2 cells ([10]; conditioned medium from 5TGM1 cells treated with sVCAM-1): induced Rank ligand mRNA in ST2 cells; bone resorption by conditioned medium of 5TGM1 treated with sVCAM-1 [11]: increased bone resorption in fetal rat long bones in a dose-dependent manner; bone resorption, soluble VCAM-1 itself [11]: had no effects on bone resorption
